Experimental data as given in patent US10287298B2, “Nitrogen-containing analogs of salinomycin, synthesis and use against cancer stem cells and malaria” (Centre National de la Recherche Scientifique (CNRS), priority 2014, dated 2019).
“Also recorded” adds a separate entry of the source.

What was measured:
MCF-7 xenograft = assay: Xenograft tumor formation; format: in vivo, mice; conditions: 3 mg per kg body weight per day, intra peritoneal
Experimental: Human breast cancer cell line MCF-7 cells cultures were collected, enzymatically dissociated, washed in PBS, and resuspended in PBS/Matrigel mixture (1:1 volume). 0.1 ml of this mixture was then implanted in the mammary fat pad of 5-week-old female AthymicNude-Fox1nu mice (Harlan, France). The mice were maintained in individually-ventilated cages (Tecniplast, France) under constant temperature and humidity; all experiments were performed under laminar flow (Tecniplast France). The mice received estradiol supplementation (0.4 mg/kg) in the same day and 7th day from cell injection, and were observed and palpated for tumor appearance. The mice received Salinomycine analogue (here AM5, 3 mg per kg body weight per day, intra peritoneal injection) every 5 opened days of the week for 33 days. Tumor growth was measured weekly using calipers. Tumor volume was determined using the standard formula: L×W2×0.52, where L and W are the longest and shortest diameters, respectively. […]
Xenograft tumor formation experiments: MCF-7 cell cultures were collected, enzymatically dissociated, washed with PBS, and re-suspended in a PBS/Matrigel mixture (1:1 v/v). […] Tumor growth was measured weekly using calipers. Tumor volume was determined using the standard formula: L×W2×0.52, where L and W are the longest and shortest diameters, respectively. […]

Cell lines = assay: Apoptosis by Annexin V-FITC and PI staining with or without NAC; format: cell-based; conditions: 500 nM, 48 h
Experimental: FIG. 5: Salinomycine analogue—induced cell death is inhibited by the ROS scavenger N-acetylcysteine (NAC). Cell lines were incubated with or without 500 nM of Sal analogues for 48 h. Apoptosis was evaluated by Annexin V-FITC and PI staining, and FACS analysis. All data are expressed as means±s.d. from three individual experiments (*; P<0.05)
Salinomycine analogue-induced cell death is inhibited by the ROS scavenger N-acetylcysteine (NAC). Cell lines were incubated with or without 500 nM of Sal analogues for 48 h. Apoptosis was evaluated by AnnexinV-FITC and PI staining, and FACS analysis.

HMLER CD24low cells [1] = assay: Reactive Oxygen Species (ROS) levels by flow cytometry (CM-H2DCF-DA); format: cell-based, Human; conditions: cells treated for 48 h
Experimental: Reactive Oxygen Species (ROS) levels were measured by flow cytometry or by confocal scanning immunofluorescence microscopy using CM-H2DCF-DA (C6827, invitrogen). Briefly, U2OS and HMLER CD24low cells were treated as indicated in FIG. 11 (30 nM, 500 nM or 1 μM of salinomycine, AM5 or AM23 or untreated during 48 h). Then, these cells were trypsined and incubated with 5 μM CM-H2DCF-DA at 37° C. for 40 min, washed once with PBS and were counterstained with DAPI (0.5 μg/ml) to exclude non-viable cells. The mean fluorescence intensity was determined as ROS production by flow cytometry with LSRFortessa™ cytometer (BD Bioscience, San Jose, Calif.). For immunofluorescence microscopy analysis, cells were seeded on coverslips and were treated with salinomycine derivatives (injection in culture medium then treatment during 24 h, 48 h and 72 h). LysoTracker® Red DND-99 (L-7528, Life technologies) was used to visualize lysosomes. Then, cells were fixed with 4% PFA/PBS. DAPI was used to visualize nuclear DNA. Cell images were obtained using a Deltavision real-time microscope (Applied Precision) or an ApoTome.2 microscope (Zeiss). ImageJ was used for further image processing.
FACS analysis of ROS in cells treated for 48 h is represented in FIG. 17.

[2] = Toxicity assessment (histology, body weight); format: in vivo, mice; conditions: effective dose
Source text: FIG. 15 is a graph representing the mice body-weight during treatment with AM5. Error bars for mice body weight represent s.d. and correspond to correspond to five animals per group.
Histology. Organs from mice were removed at time of sacrifice. For morphological analyses, organs were fixed with 4% paraformaldehyde, paraffin embedded, and 4-μm sections were stained with hematoxylin and eosin (H&E). Sections were scanned at high resolution using a slide scanner (NanoZoomer 2.0-HT, Hamamatsu, Massy, France).

HMLER CD24low cells [3] = assay: Intracellular sodium measurement (SBFI-AM); format: cell-based, Human; conditions: 5 min treatment
Experimental: Intracellular sodium measurement: Sodium and potassium buffers (10 mM HEPES, 1 mM CaCl2, 1 mM MgCl2, 130 mM Sodium-D-Gluconate or Potassium-D-Gluconate, 30 mM NaCl/KCl) were mixed at different ratios to produce five buffers with various sodium concentrations (0, 20, 40, 80, 160 mM). Nigericin (N7143, Sigma, 10 μM) and monensin (M5273, Sigma, 10 μM) were used to equilibrate the intracellular sodium concentration and establish a calibration curve. HMLER CD24low cells were harvested and re-suspended in ECS buffer (15 mM HEPES, 5.4 mM KCl, 140 mM NaCl, 10 mM Glucose, 1 mM MgCl2, 1.8 mM CaCl2, 0.1% BSA, pH 7.6) containing 10 μM of the sodiumspecific probe (SBFI-AM, S-1263, Molecular Probes®) and 0.2% Pluronic F-127 (P2443, Sigma) and were incubated for 1 h in the dark at 37° C. Then, cells were washed to remove excess dye and incubated for an additional 30 min in ECS buffer. […] Each well was sequentially excited at 340 and 370 nm and emission was recorded at 500 nm. The spectral response of SBFI upon sodium binding was assessed by excitation ratio measurement (340/370 nm). Measurements were performed on a Perkin Elmer Wallac 1420 Victor2 Microplate Reader at 37° C.

TICs = conditions: cited from earlier work

Structure (SMILES)	tumor volume and tumor weight (MCF-7 xenograft; 33 days)	tumor growth (MCF-7 xenograft; MCF-7 xenograft-bearing mice)	cell death (apoptosis) mechanism (Cell lines)	ROS production under pharmacological inhibition of Cathepsin B (HMLER CD24low cells [1])	body weight throughout treatment [2]	generic toxicity (integrity of peripheral tissues) ([2]; H&E histology)	intracellular sodium (HMLER CD24low cells [3])	efficacy in reducing the amount of TICs relative to paclitaxel (TICs) [fold]
C#CCN[C@@H]1C=C[C@]2(O[C@H]([C@@H](CC)C(=O)[C@@H](C)[C@@H](O)[C@H](C)C3O[C@@H](C(CC)C(=O)O)CC[C@@H]3C)[C@@H](C)C[C@H]2C)O[C@@]12CC[C@@](C)([C@H]1CC[C@](O)(CC)[C@H](C)O1)O2 (stereo partly drawn) [AM5, Sal-Propargylamine]	lower	inhibits breast cancer tumor growth; also recorded: prevented tumor growth	induce cell death through lysosomal ROS production	prevents AM5 from inducing ROS production	constant body weight	No generic toxicity was observed		
CCC(C(=O)O)[C@H]1CC[C@H](C)C([C@@H](C)[C@H](O)[C@H](C)C(=O)[C@H](CC)[C@H]2O[C@]3(C=C[C@@H](O)[C@]4(CC[C@@](C)([C@H]5CC[C@](O)(CC)[C@H](C)O5)O4)O3)[C@H](C)C[C@@H]2C)O1 (stereo partly drawn) [Salinomycine, Salinomycin]			induce cell death through lysosomal ROS production				induced a fast increase in intracellular sodium	100
